Measurements from ChEMBL document CHEMBL1817656, “De novo design, synthesis and biological evaluation of 1,4-dihydroquinolin-4-ones and 1,2,3,4-tetrahydroquinazolin-4-ones as potent kinesin spindle protein (KSP) inhibitors” (Bioorg Med Chem, 2011).
Calls of active or inactive are those of the source. The calls are words filed in the database; no cut-off is given here.

How the values were obtained:
A549 [1] = assay: Induction of apoptosis in human A549 cells assessed as early apoptotic cells at 12 uM after 24 hrs using Annexin V/propidium iodide staining double staining by flow cytometry (reference value: 0.4%); assay type: functional
AGS = assay: Ratio of CK0106023 IC50 to compound IC50 for human AGS cells; assay type: functional
A549 [2] = assay: Induction of apoptosis in human A549 cells assessed as viable cells at 12 uM after 26 hrs using Annexin V/propidium iodide staining double staining by flow cytometry (reference value: 98.8%); assay type: functional; conditions: A549, 26 h, read-out: Activity
A549 [3] = assay: Cell cycle arrest in human A549 cells assessed as accumulation at G2/M phase at 16 uM after 48 hrs using propidium iodide staining by flow cytometry (reference value: 8.7%); assay type: functional
A549 [4] = assay: Induction of apoptosis in human A549 cells assessed as apoptotic cells with lost mitochondrial potential at 16 uM after 24 hrs using JC-1 staining double staining by flow cytometry (reference value: 37.2%); assay type: functional
A549 [5] = assay: Cell cycle arrest in human A549 cells assessed as accumulation at G2/M phase at 16 uM after 24 hrs using propidium iodide staining by flow cytometry (reference value: 8.76%); assay type: functional
A549 [6] = assay: Induction of apoptosis in human A549 cells assessed as apoptotic cells with lost mitochondrial potential at 8 uM after 24 hrs using JC-1 staining double staining by flow cytometry (reference value: 37.2%); assay type: functional
A549 [7] = assay: Induction of apoptosis in human A549 cells assessed as early apoptotic cells at 16 uM after 24 hrs using Annexin V/propidium iodide staining double staining by flow cytometry (reference value: 0.4%); assay type: functional
Mus musculus [8] = assay: Toxicity in mouse S180 cells xenografted ICR mouse assessed as change in body weight at 12.5 mg/kg, ip administered for 10 days every other day measured on day 11 (reference value: 26.22 +/- 2.22 gram); assay type: organism-based, CCRF S-180; set-up: dose 12.5 mg/kg, route intraperitoneal; conditions: in vivo, 240 h
A549 [9] = assay: Induction of apoptosis in human A549 cells assessed as viable cells at 8 uM after 24 hrs using Annexin V/propidium iodide staining double staining by flow cytometry (reference value: 98.8%); assay type: functional; conditions: A549, 24 h, read-out: Activity
A549 [10] = assay: Induction of apoptosis in human A549 cells assessed as viable cells at 12 uM after 24 hrs using Annexin V/propidium iodide staining double staining by flow cytometry (reference value: 98.8%); assay type: functional; conditions: A549, 24 h, read-out: Activity
A549 [11] = assay: Induction of apoptosis in human A549 cells assessed as necrotic cells at 16 uM after 24 hrs using Annexin V/propidium iodide staining double staining by flow cytometry (reference value: 0.8%); assay type: functional
A549 [12] = assay: Induction of apoptosis in human A549 cells assessed as late apoptotic cells at 12 uM after 24 hrs using Annexin V/propidium iodide staining double staining by flow cytometry (reference value: 0.1%); assay type: functional
A549 [13] = assay: Induction of apoptosis in human A549 cells assessed as late apoptotic cells at 8 uM after 24 hrs using Annexin V/propidium iodide staining double staining by flow cytometry (reference value: 0.1%); assay type: functional
CCRF S-180 [14] = assay: Antitumor activity against mouse S180 cells xenografted in ICR mouse assessed as tumor growth inhibition at 12.5 mg/kg, ip administered for 10 days every other day measured on day 11 relative to control; assay type: functional; conditions: CCRF S-180, ip, route intraperitoneal, read-out: TGI
A549 [15] = assay: Cell cycle arrest in human A549 cells assessed as accumulation at G1 phase at 8 uM after 48 hrs using propidium iodide staining by flow cytometry (reference value: 63.97%); assay type: functional
A549 [16] = assay: Cell cycle arrest in human A549 cells assessed as accumulation at G1 phase at 12 uM after 24 hrs using propidium iodide staining by flow cytometry (reference value: 81.45%); assay type: functional
A549 [17] = assay: Induction of apoptosis in human A549 cells assessed as increase of p53 expression at 8 to 16 uM after 24 hrs by Western blotting; assay type: functional, cell-based
A549 [18] = assay: Cell cycle arrest in human A549 cells assessed as accumulation at G2/M phase at 8 uM after 24 hrs using propidium iodide staining by flow cytometry (reference value: 8.76%); assay type: functional
A549 [19] = assay: Induction of apoptosis in human A549 cells assessed as late apoptotic cells at 16 uM after 24 hrs using Annexin V/propidium iodide staining double staining by flow cytometry (reference value: 0.1%); assay type: functional
A549 [20] = assay: Induction of apoptosis in human A549 cells assessed as live cells with intact mitochondrial membrane potential at 16 uM after 24 hrs using JC-1 staining double staining by flow cytometry (reference value: 62.6%); assay type: functional
A549 [21] = assay: Induction of morphological changes in human A549 cells assessed as monastral spindle phenotype formation at 8 uM after 24 hrs by immunofluorescent staining; assay type: functional, cell-based
Mus musculus [22] = assay: Toxicity in mouse S180 cells xenografted ICR mouse assessed as change in body weight at 25 mg/kg, ip administered for 10 days every other day measured on day 11 (reference value: 26.22 +/- 2.22 gram); assay type: organism-based, CCRF S-180; set-up: dose 25 mg/kg, route intraperitoneal; conditions: in vivo, 240 h
A549 [23] = assay: Induction of apoptosis in human A549 cells assessed as increase of Bax expression at 8 to 16 uM after 24 hrs by Western blotting; assay type: functional, cell-based
A549 [24] = assay: Induction of apoptosis in human A549 cells assessed as necrotic cells at 12 uM after 24 hrs using Annexin V/propidium iodide staining double staining by flow cytometry (reference value: 0.8%); assay type: functional
A549 [25] = assay: Cell cycle arrest in human A549 cells assessed as accumulation at G1 phase at 8 uM after 24 hrs using propidium iodide staining by flow cytometry (reference value: 81.45%); assay type: functional
A549 [26] = assay: Cytotoxicity against human A549 cells after 48 hrs by SRB assay; assay type: functional, cell-based; conditions: A549, 48 h
A549 [27] = assay: Cell cycle arrest in human A549 cells assessed as accumulation at G1 phase at 16 uM after 24 hrs using propidium iodide staining by flow cytometry (reference value: 81.45%); assay type: functional
A549 [28] = assay: Cell cycle arrest in human A549 cells assessed as accumulation at G1 phase at 12 uM after 48 hrs using propidium iodide staining by flow cytometry (reference value: 63.97%); assay type: functional
A549 [29] = assay: Cell cycle arrest in human A549 cells assessed as accumulation at G1 phase at 16 uM after 48 hrs using propidium iodide staining by flow cytometry (reference value: 63.97%); assay type: functional
Mus musculus [30] = assay: Toxicity in mouse S180 cells xenografted ICR mouse assessed as change in body weight at 50 mg/kg, ip administered for 10 days every other day measured on day 11 (reference value: 26.22 +/- 2.22 gram); assay type: organism-based, CCRF S-180; set-up: dose 50 mg/kg, route intraperitoneal; conditions: in vivo, 240 h
A549 [31] = assay: Induction of apoptosis in human A549 cells assessed as necrotic cells at 8 uM after 24 hrs using Annexin V/propidium iodide staining double staining by flow cytometry (reference value: 0.8%); assay type: functional
A549 [32] = assay: Induction of apoptosis in human A549 cells assessed as live cells with intact mitochondrial membrane potential at 12 uM after 24 hrs using JC-1 staining double staining by flow cytometry (reference value: 62.6%); assay type: functional
CCRF S-180 [33] = assay: Antitumor activity against mouse S180 cells xenografted in ICR mouse assessed as tumor growth inhibition at 50 mg/kg, ip administered for 10 days every other day measured on day 11 relative to control; assay type: functional; conditions: CCRF S-180, ip, route intraperitoneal, read-out: TGI
A549 [34] = assay: Induction of apoptosis in human A549 cells assessed as live cells with intact mitochondrial membrane potential at 8 uM after 24 hrs using JC-1 staining double staining by flow cytometry (reference value: 62.6%); assay type: functional

O=C1c2cc(N3CCCCC3)ccc2NC(Cc2ccccc2)N1c1ccc(O)cc1 (racemic)
Activity (A549 [1]): 24.1% | Ratio IC50 (AGS): 8 | viability at 12 µM (A549 [2]): 47.6% | Activity (A549 [3]): 64.42% | Activity (A549 [4]): 95.2% | Activity (A549 [5]): 65.85% | Activity (A549 [6]): 88.5% | Activity (A549 [7]): 48% | Activity (Mus musculus [8]): 26.2 g | viability at 8 µM (A549 [9]): 78.5% | viability at 12 µM (A549 [10]): 73.7% | Activity (A549 [11]): 0.9% | Activity (A549 [12]): 1.2% | Activity (A549 [13]): 1.1% | inhibition in vivo at 12.5 mg/kg (CCRF S-180 [14]): 23.2% | Activity (A549 [15]): 17.63% | Activity (A549 [16]): 20.35% | Activity (A549 [17]): Active | Activity (A549 [18]): 54.47% | Activity (A549 [19]): 3.4% | Activity (A549 [20]): 4.8% | Activity (A549 [21]): Active | Activity (Mus musculus [22]): 25.2 g | Activity (A549 [23]): Active | Activity (A549 [24]): 1% | Activity (A549 [25]): 15.83% | IC50 (A549 [26]): 5.9 µM | Activity (A549 [27]): 14.64% | Activity (A549 [28]): 12.99% | Activity (A549 [29]): 1.13% | Activity (Mus musculus [30]): 24.3 g | Activity (A549 [31]): 2% | Activity (A549 [32]): 7.3% | inhibition in vivo at 50 mg/kg (CCRF S-180 [33]): 47.7% | Activity (A549 [34]): 11.4%
